Results from the supplement of paper PMC7394473.

Legend:
Details in all cases: 72 h
[1] = system: U2OS; assay: GR50 (concentration giving GR = 0.5)
Experimental: (§1)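 U2OS cells treated with full dose titrations of drug; live and dead cells counted by STACK microscopy (mKate2 nuclei, SYTOX Green) at 72 h, biological triplicates. GR and FV dose responses were fitted with 4-parameter logistic models (GR lower bound -1). GRADE (0-100) is the rescaled angle of a linear fit of FV versus GR at doses with GR >= 0, giving the percentage of the response due to cell death.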

[2] = system: U2OS; assay: FV IC50 (concentration giving fractional viability 0.5); higher = less potent killing
Experimental: as §1

[3] = system: U2OS; assay: normalized growth rate inhibition value (GR) relative to untreated cells (GR value (dimensionless, 1 = untreated growth)); higher = less growth inhibition
Experimental: (§2)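 U2OS::Nuc-mKate2 cells seeded in 96-well plates and treated with eight- to ten-point half-log or log dilutions of drug in the presence of 50 nM SYTOX Green. Live (mKate2+) and dead (SYTOX+) cells were counted by IncuCyte STACK live-cell microscopy at 72 h; biological triplicates. GR is the normalised growth-rate inhibition value (Hafner 2016; 1 = untreated growth, <0 = population shrinking). FV is live/(live+dead) cells, not normalised.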

[4] = system: U2OS; assay: drug GRADE (percent of response due to cell death) (% (0-100)); higher = more death-driven response
Experimental: as §1

[5] = system: U2OS; assay: fractional viability (live cells / total cells); higher = less cell death
Experimental: as §2

[6] = system: U2OS; assay: GRmin (fitted minimal GR value at highest effect) (GR value (dimensionless)); higher = less efficacious
Experimental: as §1

Nc1ccccc1NC(=O)c1ccc(CNC(=O)OCc2cccnc2)cc1 [Entinostat]
Details	FV IC50 [nM]	GR50 [µM]	GRmin	drug GRADE
[1]	–	2.84	–	–
[2]	5800	–	–	–
[4]	–	–	–	42.5
[6]	–	–	-0.906	–

Details	fractional viability, [5]	normalized growth rate inhibition value, [3]
0.01 µM	0.979	0.972
0.0316 µM	0.97	0.969
0.1 µM	0.973	0.929
0.316 µM	0.964	0.883
1 µM	0.933	0.741
3.16 µM	0.814	0.504
10 µM	0.201	-0.304
31.6 µM	0.0216	-0.726

CC(C)Oc1ccc(-c2ccccc2)cc1-n1c(CN2CCN(C(=O)COc3ccc(Cl)cc3)CC2)nc2ccccc2c1=O [Erastin 2]
Details	FV IC50 [nM]	GR50 [µM]	GRmin	drug GRADE
[1]	–	0.231	–	–
[2]	659	–	–	–
[4]	–	–	–	24.1
[6]	–	–	-0.774	–

Details	fractional viability, [5]	normalized growth rate inhibition value, [3]
0.01 µM	0.97	0.949
0.0316 µM	0.973	0.863
0.1 µM	0.952	0.703
0.316 µM	0.886	0.419
1 µM	0.233	-0.133
3.16 µM	0.0768	-0.515
10 µM	0.0609	-0.627
31.6 µM	0.0186	-0.776

COC(=O)Nc1nc2cc(C(=O)c3ccc(F)cc3)ccc2[nH]1 [Flubendazole]
Details	FV IC50 [nM]	GR50 [µM]	GRmin	drug GRADE
[1]	–	0.566	–	–
[2]	10700	–	–	–
[4]	–	–	–	61.2
[6]	–	–	-0.0291	–

Details	fractional viability, [5]	normalized growth rate inhibition value, [3]
0.01 µM	0.981	0.993
0.0316 µM	0.978	1
0.1 µM	0.971	0.892
0.316 µM	0.95	0.706
1 µM	0.766	0.286
3.16 µM	0.595	0.11
10 µM	0.516	-0.01
31.6 µM	0.468	-0.0371

COc1cc2c(Oc3ccc(NC(=O)C4(C(=O)Nc5ccc(F)cc5)CC4)cc3F)ccnc2cc1OCCCN1CCOCC1 [Foretinib]
Details	FV IC50 [nM]	GR50 [µM]	GRmin	drug GRADE
[1]	–	0.138	–	–
[2]	864	–	–	–
[4]	–	–	–	39.7
[6]	–	–	-0.837	–

Details	fractional viability, [5]	normalized growth rate inhibition value, [3]
0.01 µM	0.966	0.909
0.0316 µM	0.963	0.791
0.1 µM	0.941	0.766
0.316 µM	0.689	-0.079
1 µM	0.553	-0.199
3.16 µM	0.0154	-0.831
10 µM	0	-0.93
31.6 µM	0.0267	-0.682

CCNC(=O)c1noc(-c2cc(C(C)C)c(O)cc2O)c1-c1ccc(CN2CCOCC2)cc1 [Luminespib]
Details	FV IC50 [nM]	GR50 [µM]	GRmin	drug GRADE
[1]	–	0.00564	–	–
[2]	18.6	–	–	–
[4]	–	–	–	17.6
[6]	–	–	-0.319	–

Details	fractional viability, [5]	normalized growth rate inhibition value, [3]
0.000100578 µM	0.99	0.869
0.000317827 µM	0.99	0.878
0.00100433 µM	0.989	0.876
0.00317369 µM	0.983	0.809
0.0100289 µM	0.844	-0.00384
0.0316912 µM	0.419	-0.331
0.100144 µM	0.436	-0.365
0.316456 µM	0.464	-0.239
1 µM	0.442	-0.331

CC(C)C[C@@H](C=O)NC(=O)[C@H](CC(C)C)NC(=O)[C@H](CC(C)C)NC(=O)OCc1ccccc1 [MG-132]
Details	FV IC50 [nM]	GR50 [µM]	GRmin	drug GRADE
[1]	–	1.03	–	–
[2]	2240	–	–	–
[4]	–	–	–	13.5
[6]	–	–	-0.949	–

Details	fractional viability, [5]	normalized growth rate inhibition value, [3]
0.01 µM	0.973	1.02
0.0316 µM	0.977	1.01
0.1 µM	0.979	0.929
0.316 µM	0.974	0.9
1 µM	0.929	0.524
3.16 µM	0.226	-0.442
10 µM	0.00177	-0.885
31.6 µM	0	-0.93

C=CCn1c(=O)c2cnc(Nc3ccc(N4CCN(C)CC4)cc3)nc2n1-c1cccc(C(C)(C)O)n1 [MK1775]
Details	FV IC50 [nM]	GR50 [µM]	GRmin	drug GRADE
[1]	–	0.156	–	–
[2]	584	–	–	–
[4]	–	–	–	40.7
[6]	–	–	-0.689	–

Details	fractional viability, [5]	normalized growth rate inhibition value, [3]
0.01 µM	0.978	1.15
0.0316 µM	0.977	1.03
0.1 µM	0.948	0.664
0.316 µM	0.725	0.061
1 µM	0.294	-0.346
3.16 µM	0.125	-0.56
10 µM	0.0517	-0.681
31.6 µM	0.0225	-0.762

CCOc1cc2ncc(C#N)c(Nc3ccc(OCc4ccccn4)c(Cl)c3)c2cc1NC(=O)/C=C/CN(C)C [Neratinib]
Details	FV IC50 [nM]	GR50 [µM]	drug GRADE
[1]	–	0.346	–
[2]	1970	–	–
[4]	–	–	20

Details	fractional viability, [5]	normalized growth rate inhibition value, [3]
0.000317827 µM	0.985	0.803
0.00100433 µM	0.987	0.812
0.00317369 µM	0.985	0.867
0.0100289 µM	0.986	0.776
0.0316912 µM	0.984	0.727
0.100144 µM	0.968	0.638
0.316456 µM	0.933	0.457
1 µM	0.879	0.255
3.16 µM	0.189	-0.534

Cc1cn(-c2cc(NC(=O)c3ccc(C)c(Nc4nccc(-c5cccnc5)n4)c3)cc(C(F)(F)F)c2)cn1 [Nilotinib]
Details	FV IC50 [nM]	GR50 [µM]	drug GRADE
[1]	–	3.89	–
[2]	10300	–	–
[4]	–	–	27.4

Details	fractional viability, [5]	normalized growth rate inhibition value, [3]
0.01 µM	0.984	1.07
0.0316 µM	0.986	1.11
0.1 µM	0.98	0.977
0.316 µM	0.98	0.928
1 µM	0.972	0.955
3.16 µM	0.92	0.585
10 µM	0.53	-0.184
31.6 µM	0.00617	-0.875

Cc1cc2c(C(=O)NC[C@H](C)c3ccccc3)c(O)c(O)cc2c(O)c1-c1c(C)cc2c(C(=O)NC[C@H](C)c3ccccc3)c(O)c(O)cc2c1O [Sabutoclax]
Details	GR50 [µM]	GRmin	drug GRADE
[1]	3.32	–	–
[4]	–	–	27.4
[6]	–	-0.234	–

Details	fractional viability, [5]	normalized growth rate inhibition value, [3]
0.01 µM	0.979	0.995
0.0316 µM	0.983	0.971
0.1 µM	0.982	1.12
0.316 µM	0.975	0.844
1 µM	0.982	0.77
3.16 µM	0.936	0.533
10 µM	0.878	0.175
31.6 µM	0.681	-0.0541

CC[C@@H](C(=O)[C@@H](C)[C@@H](O)[C@H](C)[C@@H]1O[C@@H]([C@@H](CC)C(=O)O)CC[C@@H]1C)[C@H]1O[C@]2(C=C[C@@H](O)[C@]3(CC[C@@](C)([C@H]4CC[C@](O)(CC)[C@H](C)O4)O3)O2)[C@H](C)C[C@@H]1C [Salinomycin]
Details	FV IC50 [nM]	GR50 [µM]	drug GRADE
[1]	–	2.41	–
[2]	17500	–	–
[4]	–	–	59.9

Details	fractional viability, [5]	normalized growth rate inhibition value, [3]
0.01 µM	0.982	1.07
0.0316 µM	0.975	0.992
0.1 µM	0.977	0.814
0.316 µM	0.955	0.77
1 µM	0.899	0.63
3.16 µM	0.725	0.405
10 µM	0.722	0.316
31.6 µM	0.322	-0.253

CN1CCN(CCOc2cc(OC3CCOCC3)c3c(Nc4c(Cl)ccc5c4OCO5)ncnc3c2)CC1 [Saracatinib]
Details	GR50 [µM]	GRmin	drug GRADE
[1]	2.59	–	–
[4]	–	–	28.7
[6]	–	-0.134	–

Details	fractional viability, [5]	normalized growth rate inhibition value, [3]
0.00100578 µM	0.989	1.02
0.00317827 µM	0.989	1.04
0.0100433 µM	0.987	1
0.0317369 µM	0.986	0.977
0.100289 µM	0.98	0.978
0.316912 µM	0.965	0.823
1.00144 µM	0.929	0.608
3.16456 µM	0.915	0.528
10 µM	0.833	0.205

O=C1NC(=O)[C@@H](c2cn3c4c(cccc24)CCC3)[C@@H]1c1c[nH]c2ccccc12 [Tivantinib]
Details	GR50 [µM]	GRmin	drug GRADE
[1]	0.169	–	–
[4]	–	–	42.8
[6]	–	-0.31	–

Details	fractional viability, [5]	normalized growth rate inhibition value, [3]
0.00100578 µM	0.99	0.95
0.00317827 µM	0.991	1.03
0.0100433 µM	0.986	0.977
0.0317369 µM	0.988	0.86
0.100289 µM	0.975	0.598
0.316912 µM	0.844	0.299
1.00144 µM	0.613	0.049
3.16456 µM	0.683	-0.107
10 µM	0.481	-0.3

CCC(=O)N1CCN(c2ccc(-n3c(=O)ccc4cnc5ccc(-c6cnc7ccccc7c6)cc5c43)cc2C(F)(F)F)CC1 [Torin 1]
Details	GR50 [µM]	GRmin	drug GRADE
[1]	0.473	–	–
[4]	–	–	21.4
[6]	–	0.106	–

Details	fractional viability, [5]	normalized growth rate inhibition value, [3]
0.01 µM	0.977	1.02
0.0316 µM	0.976	0.896
0.1 µM	0.966	0.749
0.316 µM	0.954	0.525
1 µM	0.937	0.404
3.16 µM	0.917	0.275
10 µM	0.895	0.147
31.6 µM	0.792	0.114

CC[C@]1(O)C[C@H]2CN(CCc3c([nH]c4ccccc34)[C@@](C(=O)OC)(c3cc4c(cc3OC)N(C=O)[C@H]3[C@@](O)(C(=O)OC)[C@H](OC(C)=O)[C@]5(CC)C=CCN6CC[C@]43[C@@H]65)C2)C1 [Vincristine]
Details	FV IC50 [nM]	GRmin	drug GRADE
[2]	10.7	–	–
[4]	–	–	67.6
[6]	–	0.000271	–

Details	fractional viability, 0.00316 µM	fractional viability, 0.0316 µM	fractional viability, 0.316 µM	fractional viability, 3.16 µM	fractional viability, 31.6 µM	normalized growth rate inhibition value, 0.00316 µM	normalized growth rate inhibition value, 0.0316 µM	normalized growth rate inhibition value, 0.316 µM	normalized growth rate inhibition value, 3.16 µM	normalized growth rate inhibition value, 31.6 µM
[3]	–	–	–	–	–	0.251	0.0808	0.0568	-0.0172	0.0544
[5]	0.548	0.426	0.472	0.427	0.415	–	–	–	–	–

CC[C@@H]1C(=O)N(C)c2cnc(Nc3ccc(C(=O)N[C@H]4CC[C@H](N5CCN(CC6CC6)CC5)CC4)cc3OC)nc2N1C(C)C [Volasertib]
Details	GR50 [µM]	GRmin	drug GRADE
[1]	0.0162	–	–
[4]	–	–	17.9
[6]	–	-0.24	–

Details	fractional viability, [5]	normalized growth rate inhibition value, [3]
0.000100578 µM	0.988	0.973
0.000317827 µM	0.986	1.07
0.00100433 µM	0.987	1.1
0.00317369 µM	0.986	1
0.0100289 µM	0.964	0.717
0.0316912 µM	0.86	0.122
0.100144 µM	0.725	-0.136
0.316456 µM	0.563	-0.25
1 µM	0.548	-0.259
